Results reported in PubChem BioAssay (NCI).
Several values for one entry are separate records, joined by “and”; a condition that tells them apart may be missing. Equal values may be shown once.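 Each compound was tested at five concentrations against cells in 96-well plates for 48 hours. GI50 marks 50% less growth. TGI is the concentration that stops growth completely.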

Tests used:
Assay in all cases: inhibition of tumour cell growth, NCI panel, 48 h
SNB-19 CNS = system: SNB-19 CNS
PC-3 prostate = system: PC-3 prostate
KM12 colon = system: KM12 colon
SK-MEL-5 melanoma = system: SK-MEL-5 melanoma
MOLT-4 leukemia = system: MOLT-4 leukemia
HCT-15 colon = system: HCT-15 colon
MDA-MB-231 breast = system: MDA-MB-231 breast
TK-10 renal = system: TK-10 renal
ACHN renal = system: ACHN renal
U251 CNS = system: U251 CNS

| SMILES | TGI (SNB-19 CNS) [µM] | TGI (PC-3 prostate) [µM] | TGI (KM12 colon) [µM] | TGI (SK-MEL-5 melanoma) [µM] | TGI (MOLT-4 leukemia) [µM] | TGI (HCT-15 colon) [µM] | TGI (MDA-MB-231 breast) [µM] | TGI (TK-10 renal) [µM] | TGI (ACHN renal) [µM] | TGI (U251 CNS) [µM] | GI50 (SNB-19 CNS) [µM] | GI50 (KM12 colon) | GI50 (SK-MEL-5 melanoma) | GI50 (MOLT-4 leukemia) [µM] | GI50 (HCT-15 colon) [µM] | GI50 (TK-10 renal) [µM] | GI50 (ACHN renal) [µM] | GI50 (U251 CNS) [µM] |
| --- | --- | --- | --- | --- | --- | --- | --- | --- | --- | --- | --- | --- | --- | --- | --- | --- | --- | --- |
| C[C@]12CC[C@H]3[C@@H](CC=C4C[C@@H](O)CC[C@@]43C)[C@@H]1C[C@H](N1CCOCC1)[C@@H]2O | > 100 | > 100 | > 100 | > 100 | > 100 | > 100 | > 100 | > 100 | > 100 | > 100 | – | – | – | – | – | – | – | – |
| N#CC12CC=C(c3ccccc3)N=C1NC(c1ccccc1)=CC2 (stereo unspecified) | > 100 | > 100 | > 100 | 39.4 | 55.1 | > 100 | > 100 | > 100 | > 100 | > 100 | – | – | – | – | – | – | – | – |
| CC(=O)C1=C(C)N(c2ccc(C)cc2)C2(O)C=CC(=O)C3=C(O)c4ccccc4C(=O)C312 (stereo unspecified) | > 100 | 41.5 | 55.1 | 26.3 | > 100 | > 100 | 70.2 | 47.2 | 36.8 | 69.6 | – | – | – | – | – | – | – | – |
| CCCC(=O)n1[nH]c(=O)n(C(C)(C)C)c1=O | > 100 | > 100 | > 100 | > 100 | > 100 | > 100 | > 100 | > 100 | > 100 | > 100 | – | – | – | – | – | – | – | – |
| Nc1ncnc2c1ccn2CC=C(CO)CO | > 100 | > 100 | > 100 | > 100 | > 100 | > 100 | > 100 | > 100 | > 100 | > 100 | – | – | – | – | – | – | – | – |
| Cn1c2c(c3ccccc31)CC(=O)N1CCCC(C1)CC21OCCO1 (stereo unspecified) | > 100 | > 100 | > 100 | > 100 | > 100 | > 100 | > 100 | > 100 | > 100 | > 100 | – | – | – | – | – | – | – | – |
| Oc1ccc(NCc2cc(O)ccc2O)cc1 | 35.1 | 28.4 | 42 | 38.9 | 7.81 | 36.8 | 29.2 | 30.4 | 29.6 | 29.5 | – | – | – | – | – | – | – | – |
| CC(=O)O[C@@H]1[C@@H](C)[C@]2(CC(c3ccoc3)OC2O)C2CCC3O[C@]3(C)[C@]2(C)[C@@H]1OC(C)=O (stereo partly specified) | > 100 | > 100 | 86.8 | 64.3 | 64.9 | > 100 | > 100 | > 100 | > 100 | > 100 | – | – | – | – | – | – | – | – |
| [O-]/N=N\c1on[n+](CCc2ccccc2)c1Cc1c(/N=N/[O-])on[n+]1CCc1ccccc1 | 93.2 | > 100 | > 100 | 88 | > 100 | > 100 | 88.6 | 56.2 | > 100 | 52.7 | – | – | – | – | – | – | – | – |
| CC(C)[Si](Oc1cc2c3c(ccc2c(O)c1[C@@H](C)CO[Si](C)(C)C(C)(C)C)C(C)(C)CCC3)(C(C)C)C(C)C | > 100 | > 100 | > 100 | 59.8 | > 100 | > 100 | > 100 | > 100 | > 100 | > 100 | – | – | – | – | – | – | – | – |
| COc1cccc2c1C(=O)c1c(O)c3c(c(O)c1C2=O)C[C@@](O)(C(C)=O)C[C@@H]3OC1CC(N(C)C)C(O)C(C)O1 (stereo partly specified) | – | 0.00144 | – | – | – | – | 0.005 | 1.34 | – | – | 0.0396 | 0.0171 µM and 0.0131 µM | 0.0368 µM and < 0.0109 µM | 0.00495 | 0.0211 | 0.122 | 0.00902 | 0.0451 |
| O=C(/C=C/c1cc(F)ccc1F)OCCc1ccccc1 | > 100 | > 100 | > 100 | > 100 | > 100 | > 100 | > 100 | > 100 | > 100 | > 100 | – | – | – | – | – | – | – | – |
| COc1ccc(N2C(=O)C(C#N)=C(SC)C(C#N)C2=O)cc1 (stereo unspecified) | > 100 | > 100 | > 100 | > 100 | > 100 | > 100 | > 100 | > 100 | > 100 | > 100 | – | – | – | – | – | – | – | – |
| N#Cc1nc(-c2ccccc2O)oc1N | > 100 | > 100 | > 100 | > 100 | > 100 | > 100 | > 100 | > 100 | > 100 | > 100 | – | – | – | – | – | – | – | – |
| O=CNNC(=O)CSc1nc2ccc(I)cc2c(=O)n1Cc1ccccc1 | > 100 | > 100 | > 100 | 38.2 | > 100 | > 100 | 81.8 | > 100 | > 100 | > 100 | – | – | – | – | – | – | – | – |
| c1ccc(N=C2C(=Nc3ccccc3)N(C3CCCCC3)C(=NC3CCCCC3)N2c2ccccc2)cc1 | > 100 | > 100 | > 100 | > 100 | > 100 | > 100 | > 100 | > 100 | > 100 | > 100 | – | – | – | – | – | – | – | – |
| c1ccc2c(c1)ncn2CCn1ccnc1 | > 100 | > 100 | > 100 | > 100 | > 100 | > 100 | > 100 | > 100 | > 100 | > 100 | – | – | – | – | – | – | – | – |
